# Laboratory results: ChEMBL document CHEMBL1649134, “Occurrence of efflux mechanism and cephalosporinase variant in a population of Enterobacter aerogenes and Klebsiella pneumoniae isolates producing extended-spectrum beta-lactamases” (2009)
# Key:
# Format in all cases: functional
# Klebsiella aerogenes [1] = test: Antimicrobial activity against multidrug resistant Enterobacter aerogenes isolate 22 by broth dilution method
# Klebsiella aerogenes [2] = test: Antimicrobial activity against multidrug resistant Enterobacter aerogenes isolate 3 by broth dilution method
# Klebsiella pneumoniae [3] = test: Antimicrobial activity against multidrug resistant Klebsiella pneumoniae isolate 9 by broth dilution method
# Klebsiella pneumoniae [4] = test: Antimicrobial activity against multidrug resistant Klebsiella pneumoniae isolate 10 by broth dilution method
# Klebsiella aerogenes [5] = test: Antimicrobial activity against multidrug resistant Enterobacter aerogenes isolate 14 by broth dilution method
# Klebsiella aerogenes [6] = test: Antimicrobial activity against multidrug resistant Enterobacter aerogenes isolate 2 by broth dilution method
# Klebsiella aerogenes [7] = test: Antimicrobial activity against multidrug resistant Enterobacter aerogenes isolate 13 by broth dilution method
# Klebsiella aerogenes [8] = test: Antimicrobial activity against multidrug resistant Enterobacter aerogenes isolate 25 by broth dilution method
# Klebsiella aerogenes [9] = test: Antimicrobial activity against multidrug resistant Enterobacter aerogenes isolate 17 by broth dilution method
# Klebsiella pneumoniae [10] = test: Antimicrobial activity against multidrug resistant Klebsiella pneumoniae isolate 13 by broth dilution method
# Klebsiella pneumoniae [11] = test: Antimicrobial activity against multidrug resistant Klebsiella pneumoniae isolate 6 by broth dilution method
# Klebsiella aerogenes [12] = test: Antimicrobial activity against multidrug resistant Enterobacter aerogenes isolate 24 by broth dilution method
# Klebsiella aerogenes [13] = test: Antimicrobial activity against multidrug resistant Enterobacter aerogenes isolate 27 by broth dilution method
# Klebsiella aerogenes [14] = test: Antimicrobial activity against multidrug resistant Enterobacter aerogenes isolate 4 by broth dilution method
# Klebsiella aerogenes [15] = test: Antimicrobial activity against multidrug resistant Enterobacter aerogenes isolate 10 by broth dilution method
# Klebsiella pneumoniae [16] = test: Antimicrobial activity against multidrug resistant Klebsiella pneumoniae isolate 16 by broth dilution method
# Klebsiella aerogenes [17] = test: Antimicrobial activity against multidrug resistant Enterobacter aerogenes isolate 12 by broth dilution method
# Klebsiella pneumoniae [18] = test: Antimicrobial activity against multidrug resistant Klebsiella pneumoniae isolate 5 by broth dilution method
# Klebsiella pneumoniae [19] = test: Antimicrobial activity against multidrug resistant Klebsiella pneumoniae isolate 8 by broth dilution method
# Klebsiella pneumoniae [20] = test: Antimicrobial activity against multidrug resistant Klebsiella pneumoniae isolate 12 by broth dilution method
# Klebsiella pneumoniae [21] = test: Antimicrobial activity against multidrug resistant Klebsiella pneumoniae ATCC 11296 by broth dilution method
# Klebsiella aerogenes [22] = test: Antimicrobial activity against multidrug resistant Enterobacter aerogenes isolate 23 by broth dilution method
# Klebsiella pneumoniae [23] = test: Antimicrobial activity against multidrug resistant Klebsiella pneumoniae isolate 3 by broth dilution method
# Klebsiella aerogenes [24] = test: Antimicrobial activity against multidrug resistant Enterobacter aerogenes isolate 19 by broth dilution method
# Klebsiella pneumoniae [25] = test: Antimicrobial activity against multidrug resistant Klebsiella pneumoniae isolate 2 by broth dilution method
# Klebsiella aerogenes [26] = test: Antimicrobial activity against multidrug resistant Enterobacter aerogenes ATCC 15038 by broth dilution method
# Klebsiella aerogenes [27] = test: Antimicrobial activity against multidrug resistant Enterobacter aerogenes isolate 1 by broth dilution method
# Klebsiella pneumoniae [28] = test: Antimicrobial activity against multidrug resistant Klebsiella pneumoniae isolate 14 by broth dilution method
# Klebsiella aerogenes [29] = test: Antimicrobial activity against multidrug resistant Enterobacter aerogenes isolate 15 by broth dilution method
# Klebsiella aerogenes [30] = test: Antimicrobial activity against multidrug resistant Enterobacter aerogenes isolate 20 by broth dilution method
# Klebsiella pneumoniae [31] = test: Antimicrobial activity against multidrug resistant Klebsiella pneumoniae isolate 15 by broth dilution method
# Klebsiella aerogenes [32] = test: Antimicrobial activity against multidrug resistant Enterobacter aerogenes isolate 26 by broth dilution method
# Klebsiella aerogenes [33] = test: Antimicrobial activity against multidrug resistant Enterobacter aerogenes isolate 7 by broth dilution method
# Klebsiella pneumoniae [34] = test: Antimicrobial activity against multidrug resistant Klebsiella pneumoniae isolate 7 by broth dilution method
# Klebsiella aerogenes [35] = test: Antimicrobial activity against multidrug resistant Enterobacter aerogenes isolate 18 by broth dilution method
# Klebsiella aerogenes [36] = test: Antimicrobial activity against multidrug resistant Enterobacter aerogenes isolate 8 by broth dilution method
# Klebsiella aerogenes [37] = test: Antimicrobial activity against multidrug resistant Enterobacter aerogenes isolate 21 by broth dilution method
# Klebsiella aerogenes [38] = test: Antimicrobial activity against multidrug resistant Enterobacter aerogenes isolate 6 by broth dilution method
# Klebsiella aerogenes [39] = test: Antimicrobial activity against multidrug resistant Enterobacter aerogenes isolate 9 by broth dilution method
# Klebsiella aerogenes [40] = test: Antimicrobial activity against multidrug resistant Enterobacter aerogenes isolate 11 by broth dilution method
# Klebsiella aerogenes [41] = test: Antimicrobial activity against multidrug resistant Enterobacter aerogenes isolate 16 by broth dilution method
# Klebsiella pneumoniae [42] = test: Antimicrobial activity against multidrug resistant Klebsiella pneumoniae isolate 4 by broth dilution method
# Klebsiella aerogenes [43] = test: Antimicrobial activity against multidrug resistant Enterobacter aerogenes isolate 5 by broth dilution method
# Klebsiella pneumoniae [44] = test: Antimicrobial activity against multidrug resistant Klebsiella pneumoniae isolate 11 by broth dilution method
# Klebsiella pneumoniae [45] = test: Antimicrobial activity against multidrug resistant Klebsiella pneumoniae isolate 1 by broth dilution method
smiles,measurement,setting,value
CO[C@@]1(NC(=O)Cc2cccs2)C(=O)N2C(C(=O)O)=C(COC(N)=O)CS[C@@H]21 [CEFOXITIN],MIC,Klebsiella aerogenes [1],> 1020 µg/mL
same,MIC,Klebsiella aerogenes [2],> 1020 µg/mL
same,MIC,Klebsiella pneumoniae [3],16 µg/mL
same,MIC,Klebsiella pneumoniae [4],32 µg/mL
same,MIC,Klebsiella aerogenes [5],> 1020 µg/mL
same,MIC,Klebsiella aerogenes [6],> 1020 µg/mL
same,MIC,Klebsiella aerogenes [7],> 1020 µg/mL
same,MIC,Klebsiella aerogenes [8],> 1020 µg/mL
same,MIC,Klebsiella aerogenes [9],> 1020 µg/mL
same,MIC,Klebsiella pneumoniae [10],32 µg/mL
same,MIC,Klebsiella pneumoniae [11],16 µg/mL
same,MIC,Klebsiella aerogenes [12],> 1020 µg/mL
same,MIC,Klebsiella aerogenes [13],> 1020 µg/mL
same,MIC,Klebsiella aerogenes [14],> 1020 µg/mL
same,MIC,Klebsiella aerogenes [15],> 1020 µg/mL
same,MIC,Klebsiella pneumoniae [16],32 µg/mL
same,MIC,Klebsiella aerogenes [17],> 1020 µg/mL
same,MIC,Klebsiella pneumoniae [18],16 µg/mL
same,MIC,Klebsiella pneumoniae [19],8 µg/mL
same,MIC,Klebsiella pneumoniae [20],64 µg/mL
same,MIC,Klebsiella pneumoniae [21],8 µg/mL
same,MIC,Klebsiella aerogenes [22],256 µg/mL
same,MIC,Klebsiella pneumoniae [23],32 µg/mL
same,MIC,Klebsiella aerogenes [24],> 1020 µg/mL
same,MIC,Klebsiella pneumoniae [25],16 µg/mL
same,MIC,Klebsiella aerogenes [26],128 µg/mL
same,MIC,Klebsiella aerogenes [27],> 1020 µg/mL
same,MIC,Klebsiella pneumoniae [28],64 µg/mL
same,MIC,Klebsiella aerogenes [29],> 1020 µg/mL
same,MIC,Klebsiella aerogenes [30],> 1020 µg/mL
same,MIC,Klebsiella pneumoniae [31],64 µg/mL
same,MIC,Klebsiella aerogenes [32],1020 µg/mL
same,MIC,Klebsiella aerogenes [33],> 1020 µg/mL
same,MIC,Klebsiella pneumoniae [34],16 µg/mL
same,MIC,Klebsiella aerogenes [35],> 1020 µg/mL
same,MIC,Klebsiella aerogenes [36],1020 µg/mL
same,MIC,Klebsiella aerogenes [37],> 1020 µg/mL
same,MIC,Klebsiella aerogenes [38],> 1020 µg/mL
same,MIC,Klebsiella aerogenes [39],> 1020 µg/mL
same,MIC,Klebsiella aerogenes [40],512 µg/mL
same,MIC,Klebsiella aerogenes [41],> 1020 µg/mL
same,MIC,Klebsiella pneumoniae [42],32 µg/mL
same,MIC,Klebsiella aerogenes [43],> 1020 µg/mL
same,MIC,Klebsiella pneumoniae [44],32 µg/mL
same,MIC,Klebsiella pneumoniae [45],16 µg/mL
